The values below are quoted from earlier work in PMC2063322, “Phase I trial and pharmacokinetics of the tubulin inhibitor 1069C85--a synthetic agent binding at the colchicine site designed to overcome multidrug resistance” (British Journal of Cancer, 1997).

SMILES strings stand for the structures. Like-named read-outs stand apart in the source and are kept apart here.

For data set [1] the following is noted: 1995, cited from earlier work.
Details of data set [2]: method as in van Asperen et al (1996). As to conditions: ref van Asperen et al (1996); cited from earlier work.

On to `CCOC(=O)Nc1cc2c(c(N)n1)N=C(c1ccccc1)[C@H](C)N2` [CI-980], for which the dose limiting toxicity result is “dose limiting central neurotoxicity” in data set [1] (24 h-infusion schedule, ataxia, confusion and coma, ref Sklarin et al); “dose limiting myelosuppression” in data set [1] (72 h-infusion, ref Rowinsky et al).
In the case of `CC[C@]1(O)C[C@@H]2CN(CCc3c([nH]c4ccccc34)[C@@](C(=O)OC)(c3cc4c(cc3OC)N(C)[C@H]3[C@@](O)(C(=O)OC)[C@H](OC(C)=O)[C@]5(CC)C=CCN6CC[C@]43[C@@H]65)C2)C1` [vinblastine], in data set [2], the “accumulation of drug in the brains of P-glycoprotein-deficient versus wild-type mice” value is recorded as “substantially greater accumulation”.
